Assay [1] deals with Human M3 receptor membranes (Homo sapiens (Human), UniProt P20309). Description: M3 Receptor radioligand binding assay. As to conditions: for Ki: Ki from IC50 by Cheng and Prusoff. Here is the method:
M3 Receptor Radioligand Binding Assay:
The assay is carried out in 96-well polypropylene plates in a volume of 250 μl. […] The final assay concentration of DMSO is 0.5% (v/v). The plates are sealed and incubated for 2 h at room temperature on an orbital shaker (slow speed). Membranes are harvested onto 96-well unifilter GF/C filter plates pre-treated with 0.5% polyethyleneimine (v/v), using a filter manifold, washed four times with 200 μl of assay buffer. The plates are dried before addition of 50 μl of microscint-0, sealed then read in a Trilux Microbeta scintillation counter. IC50 values are determined from competition curves using a non-linear curve fitting program. Ki values are calculated from IC50 values by the Cheng and Prusoff equation.

The test system of assay [2] is Cch-evoked bronchoconstriction in rats. Description: Bronchospasm, percentage of inhibition (Cch-induced bronchoconstriction, duration of action). The format is in vivo, Male CD Sprague Dawley rats. Particulars: rat; for sub-maximal inhibition Dose: Dose producing about 80% (sub-maximal) inhibition of the bronchospasm after 1 h, intratracheal; for inhibition at 16 h: inhibition of bronchospasm 16 h after intratracheal administration of the sub-maximal inhibition dose. On the procedure: Protocol of Bronchospasm—Percentage of Inhibition
Male CD Sprague Dawley rats (220-250 g) were purchased from Charles River Laboratories Italy (Calco, Lecco). Prior to use animals were acclimated for at least 5 days to the local vivarium conditions (room temperature: 20-24° C.; relative humidity: 40-70%), having free access to standard rat chow and softened tap water. All the procedures were performed in animal operating rooms according to ethical guidelines for the conduct of animal research (D. L.vo 116/92).
Treatment with Test Compounds
Animals were anaesthetised with Urethane (1.2 g/kg, i.p.) and a laryngoscope was moved forward into the mouth to visualize the trachea and guide the insertion of the tip of a custom made small diameter cannula directly into the trachea and located 1-2 mm above the bifurcation. Test compounds were dissolved in 100% dimethyl sulphoxide (DMSO) at 10^−2 M. The target concentration was obtained by dilution of the DMSO stock in saline. Test compounds were instilled locally into the trachea in a volume of 125 μl.
In order to assess the residual inhibitory activity of test compounds at 1-16 hours after their administration, rats were surgically prepared. In order to assess the Cch-induced bronchoconstriction in rats, the infusion of physiological solution was stopped and the bronchospastic agent injected into the jugular vein using the same cannula. Soon after washing the cannula with saline to ensure the complete administration of the bronchoconstrictor agent, the saline infusion was started again. Body temperature was kept constant at 37° C. by a heated blanket.
The trachea was cannulated and the lungs were ventilated artificially with a small animal constant volume ventilator (rodent ventilator mod. 7025, Ugo Basile, Comerio, Varese, Italy) at a frequency of 80 strokes/min and at a tidal volume of 2.5 ml/kg. To avoid spontaneous breathing, the animals were injected intravenously (i.v.) with pancuronium bromide (2 mg/kg). Bronchoconstriction was induced by the i.v. injection of Cch 50 μg/kg. In control experiments, repeated injections of this dose produced reproducible short-lasting (1-2 min duration) bronchospasms. Bronchoconstriction, quantified as a reduction of tidal volume, was evaluated according to the method described by Konzett & Roessler in Konzett H. and Roessler R., Versuchanornungzu untersuchungen ande bronchialmuskulatur. Arch. Exp. Path. Pharmak.; 195:71-74 (1940), which is incorporated herein by reference in its entirety.
Systemic blood pressure and changes in airway resistance were monitored with a digital pressure transducer connected to a bridge amplifier (PowerLab; Ugo Basile, Italy) and recorded using Chart 5 software (Ugo Basile, Italy).
After stabilization of artificial breathing and blood pressure, animals were injected (i.v.) with Cch every 3 min, until 3 stable and reproducible basal responses were obtained. […] The effect of test compounds was expressed as % inhibition of Cch-evoked bronchoconstriction in time-matched, vehicle-treated, animals (controls).

Assay [3] addresses Human recombinant PDE4B2 (Homo sapiens (Human), UniProt Q07343). The assay is described as follows: PDE4B2 HTRF assay. The format is biochemical. Here is the method:
PDE4B2 activity is detected using the LANCE Ultra cAMP homogeneous time resolved fluorescence resonance energy transfer (TR-FRET) assay from Perkin Elmer. The assay is based on the competition between the europium (Eu) chelate-labeled cAMP tracer and sample cAMP for binding sites on cAMP-specific monoclonal antibodies (mAb) labelled with the ULight™ dye. The assay is carried out in 384-well low volume plates in a volume of 10 μl. Human recombinant PDE4B2 (80 pM) is incubated for 2 h with 3 nM cAMP in buffer containing 1×HBSS, 5 mM HEPES, 3 mM MgCl2, 0.1% BSA, pH 7.4 with or without test compounds. The enzymatic reactions are efficiently stopped by the addition of 500 μM IBMX present in the combined Stop/Detection buffer containing europium (Eu) chelate-labeled cAMP tracer and cAMP-specific monoclonal antibodies (mAb) labelled with the ULight™ dye. […] IC50 values are determined from competition curves using a non-linear curve fitting program.
Background: In TR-FRET formats the signal depends on donor and acceptor labels being close together.

The subject of assay [4] is smoking model of COPD in mice. Particulars: cited from earlier work.
For assay [5], the system named is COPD patients. Particulars: cited from earlier work.
Setting [6] is: M3 Receptor radioligand binding assay.
The mark [7] stands for this setting: M3 Receptor radioligand binding assay, read-out: M3 IC50.
Where [8] appears, read: M3 Receptor radioligand binding assay, read-out: M3 IC50 activity.
Setting [9] is: PDE4B2 HTRF assay, read-out: PDE4B2 IC50 activity.
Setting [10] is: patients with severe disease, frequent exacerbations and mucus hypersecretion.

The values below come from patent US9636336B2, “Aminoester derivatives” (CHIESI FARMACEUTICI S.p.A., priority 2015, dated 2017).

Where two headings read alike, the source gives them in different places.

Sequence of Human recombinant PDE4B2 (Q07343 other isoform, or with tags, fused parts or gaps): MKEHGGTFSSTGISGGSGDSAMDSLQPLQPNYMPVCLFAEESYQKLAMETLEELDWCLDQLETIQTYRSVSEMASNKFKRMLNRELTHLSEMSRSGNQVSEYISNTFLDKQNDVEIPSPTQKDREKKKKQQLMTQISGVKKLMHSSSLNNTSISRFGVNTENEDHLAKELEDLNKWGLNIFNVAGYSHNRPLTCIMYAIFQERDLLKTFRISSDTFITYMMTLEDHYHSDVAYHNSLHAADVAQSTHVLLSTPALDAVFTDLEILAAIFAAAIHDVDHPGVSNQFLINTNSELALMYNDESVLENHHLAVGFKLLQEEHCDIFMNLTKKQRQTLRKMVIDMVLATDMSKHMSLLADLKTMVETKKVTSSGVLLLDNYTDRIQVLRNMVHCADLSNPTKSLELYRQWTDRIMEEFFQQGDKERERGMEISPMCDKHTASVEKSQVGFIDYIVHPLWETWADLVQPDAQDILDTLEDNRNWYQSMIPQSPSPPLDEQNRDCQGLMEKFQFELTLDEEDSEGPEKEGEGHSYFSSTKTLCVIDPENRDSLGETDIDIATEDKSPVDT
Sequence of Human M3 receptor membranes (P20309 whole entry): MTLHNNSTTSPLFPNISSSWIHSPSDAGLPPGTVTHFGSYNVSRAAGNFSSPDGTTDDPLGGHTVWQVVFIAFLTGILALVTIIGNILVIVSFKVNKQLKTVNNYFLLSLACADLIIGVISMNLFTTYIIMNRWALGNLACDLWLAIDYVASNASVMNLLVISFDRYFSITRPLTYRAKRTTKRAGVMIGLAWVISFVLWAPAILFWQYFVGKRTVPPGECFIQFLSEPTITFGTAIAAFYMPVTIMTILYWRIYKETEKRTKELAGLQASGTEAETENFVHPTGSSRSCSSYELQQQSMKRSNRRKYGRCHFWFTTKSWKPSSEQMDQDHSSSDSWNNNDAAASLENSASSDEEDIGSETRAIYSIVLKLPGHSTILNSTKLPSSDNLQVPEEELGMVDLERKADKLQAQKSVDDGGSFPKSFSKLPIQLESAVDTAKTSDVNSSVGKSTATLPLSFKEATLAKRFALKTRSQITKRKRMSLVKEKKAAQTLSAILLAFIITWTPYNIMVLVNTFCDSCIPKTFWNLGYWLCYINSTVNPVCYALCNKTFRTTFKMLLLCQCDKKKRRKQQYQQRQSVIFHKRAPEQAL

With `COc1ccc([C@H](Cc2c(Cl)c[n+]([O-])cc2Cl)OC(=O)c2ccc(CNC(C(=O)O[C@H]3CCN(C)C3)c3ccccc3)s2)cc1OC` (single isomer, unassigned) [Example 78c, reference compound], the affinity in assay [1] (setting [6]) corresponds to a Ki of 0.54 nM. Besides, in assay [1] (setting [7]), the half-inhibitory concentration (IC50) was 1.08 nM. In assay [2], the “sub-maximal inhibition Dose” value came out at 100 nmol/kg and the “inhibition at 16 h” value was 26%.

The compound `COc1ccc([C@H](Cc2c(Cl)c[n+]([O-])cc2Cl)OC(=O)c2ccc(CNC(C(=O)OC3CCN(C)CC3)c3ccccc3)s2)cc1OC` (single isomer, unassigned) [Example 87c, reference compound] returned a Ki in assay [1] (setting [6]) of 0.3 nM. The 50% inhibitory concentration (IC50) in assay [1] (setting [7]) turned out to be 0.5 nM. For the same compound, in assay [2], the “sub-maximal inhibition Dose” value was determined as 30 nmol/kg and the “inhibition at 16 h” value is below 10%.

In assay [1] (setting [6]), `COc1ccc([C@H](Cc2c(Cl)c[n+]([O-])cc2Cl)OC(=O)c2ccc(CNC(CO)(C(=O)OC3CCN(C)CC3)c3ccccc3)s2)cc1OC` (single isomer, unassigned) [Example 105c, reference compound] registered a Ki of 0.23 nM. Further, the IC50 in assay [1] (setting [7]) stood at 0.45 nM. Also, in assay [2], the “sub-maximal inhibition Dose” value is 10 nmol/kg and the “inhibition at 16 h” value worked out at 35%.

Take `COc1ccc(C(Cc2c(Cl)c[n+]([O-])cc2Cl)OC(=O)c2ccc(CNC(C(=O)OCC3CCN(C)CC3)c3cccc(O)c3)s2)cc1OCC1CC1` (stereo not drawn) [Example 47, [1-[3-(cyclopropylmethoxy)-4-methoxy-phenyl]-2-(3,5-dichloro-1-oxido-pyridin-1-ium-4-yl)ethyl]5-[[[1-(3-hydroxyphenyl)-2-[(1-methyl-4-piperidyl)methoxy]-2-oxo-ethyl]amino]methyl]thiophene-2-carboxylate]: the IC50 in assay [1] (setting [8]) and in assay [3] (setting [9]) was 1 to 10 nM each time.

In the case of `COc1ccc([C@H](Cc2c(Cl)c[n+]([O-])cc2Cl)OC(=O)c2ccc(CNC(C(=O)OC[C@@H]3CCCN(C)C3)c3ccccc3)s2)cc1OC` (stereo partly drawn) [Example 49, [(1S)-2-(3,5-dichloro-1-oxido-pyridin-1-ium-4-yl)-1-(3,4-dimethoxyphenyl)ethyl]5-[[[2-[[(3R)-1-methyl-3-piperidyl]methoxy]-2-oxo-1-phenyl-ethyl]amino]methyl]thiophene-2-carboxylate], the half-inhibitory concentration (IC50) in assay [1] (setting [8]) is 10 to 100 nM; in assay [3] (setting [9]), 1 to 10 nM.

For the compound `COc1ccc([C@H](Cc2c(Cl)c[n+]([O-])cc2Cl)OC(=O)c2ccc(CNC(C(=O)OC[C@H]3CCN(C)C3)c3ccccc3)s2)cc1OC` (stereo partly drawn) [Example 78, [(1S)-2-(3,5-dichloro-1-oxido-pyridin-1-ium-4-yl)-1-(3,4-dimethoxyphenyl)ethyl] 5-[[[2-[[(3S)-1-methylpyrrolidin-3-yl]methoxy]-2-oxo-1-phenyl-ethyl]amino]methyl]thiophene-2-carboxylate], the IC50 in assay [1] (setting [8]) fell in the range of 1 to 10 nM. In assay [2], the “sub-maximal inhibition Dose” value amounted to 30 nmol/kg and the “inhibition at 16 h” value was 51%.

For `COc1ccc([C@H](Cc2c(Cl)c[n+]([O-])cc2Cl)OC(=O)c2ccc(CNC(C(=O)OCC3CCN(C)CC3)c3ccccc3)s2)cc1OC` (stereo partly drawn) [Example 87, [(1S)-2-(3,5-dichloro-1-oxido-pyridin-1-ium-4-yl)-1-(3,4-dimethoxyphenyl)ethyl] 5-[[[2-[(1-methyl-4-piperidyl)methoxy]-2-oxo-1-phenyl-ethyl]amino]methyl]thiophene-2-carboxylate], in assay [2], the “sub-maximal inhibition Dose” value is recorded as 10 nmol/kg and the “inhibition at 16 h” value was above 90%.

For `COc1ccc([C@H](Cc2c(Cl)c[n+]([O-])cc2Cl)OC(=O)c2ccc(CNC(CO)(C(=O)OCC3CCN(C)CC3)c3ccccc3)s2)cc1OC` (stereo partly drawn) [Example 105, [(1S)-2-(3,5-dichloro-1-oxido-pyridin-1-ium-4-yl)-1-(3,4-dimethoxyphenyl)ethyl] 5-[[[1-(hydroxymethyl)-2-[(1-methyl-4-piperidyl)methoxy]-2-oxo-1-phenyl-ethyl]amino]methyl]thiophene-2-carboxylate], in assay [2], the “sub-maximal inhibition Dose” value is on record as 30 nmol/kg and the “inhibition at 16 h” value is reported as 88%.

`COCCOc1cc([C@H](Cc2c(Cl)c[n+]([O-])cc2Cl)OC(=O)c2ccc(CNC(C(=O)OCC3CCN(C)CC3)c3ccccc3)s2)ccc1OC(F)F` (stereo partly drawn) [Example 113, [(1S)-2-(3,5-dichloro-1-oxido-pyridin-1-ium-4-yl)-1-[4-(difluoromethoxy)-3-(2-methoxyethoxy)phenyl]ethyl] 5-[[[2-[(1-methyl-4-piperidyl)methoxy]-2-oxo-1-phenyl-ethyl]amino]methyl]thiophene-2-carboxylate]: the IC50 in assay [1] (setting [8]) and in assay [3] (setting [9]) was 1 to 10 nM throughout.

In the case of `COc1ccc([C@H](Cc2c(Cl)c[n+]([O-])cc2Cl)OC(=O)c2ccc(CNC(C(=O)OCC3C[C@H]4CC[C@@H](C3)N4C)c3ccccc3)s2)cc1OC` (stereo partly drawn) [Example 114, [(1S)-2-(3,5-dichloro-1-oxido-pyridin-1-ium-4-yl)-1-(3,4-dimethoxyphenyl)ethyl] 5-[[[2-[[(1R,5S)-8-methyl-8-azabicyclo[3.2.1]octan-3-yl]methoxy]-2-oxo-1-phenyl-ethyl]amino]methyl]thiophene-2-carboxylate], the 50% inhibitory concentration (IC50) was in the range of 10 to 100 nM in assay [1] and 1 to 10 nM in assay [3].

For `COc1ccc([C@H](Cc2c(Cl)c[n+]([O-])cc2Cl)OC(=O)c2ccc(CNC(CO)(C(=O)OCC34CCN(CC3)CC4)c3ccccc3)s2)cc1OC` (stereo partly drawn) [Example 117, [(1S)-2-(3,5-dichloro-1-oxido-pyridin-1-ium-4-yl)-1-(3,4-dimethoxyphenyl)ethyl]5-[[[1-(hydroxymethyl)-2-oxo-1-phenyl-2-(quinuclidin-4-ylmethoxy)ethyl]amino]methyl]thiophene-2-carboxylate], the IC50 was below 1 nM in assay [1] (setting [8]) and 1 to 10 nM in assay [3] (setting [9]).

For `O=C(Nc1c(Cl)cncc1Cl)c1ccc(OC(F)F)c(OCC2CC2)c1` [roflumilast], the “lung inflammation and emphysema” value in assay [4] is “inhibits lung inflammation and emphysema”. Besides, the “reduction of numbers of neutrophils in sputum” value in assay [5] (COPD patients, oral, over 4 weeks) is reported as 36%. Further, in assay [5] (setting [10]), the “improvement of FEV 1” value is “approximately 50 mL” and the reduction of exacerbation entry is reported as “about 15%”.

Broadly, the Ki is the equilibrium dissociation constant of an inhibitor or competing ligand from its target. A lower Ki goes with higher affinity. Broadly, the IC50 is the point on the concentration scale where inhibition reaches its midpoint. What is called inhibition is the change of the read-out against control, counted positive when it falls. Read a high inhibition as a strong effect.
